Data: paper PMC7113773 (Antiviral Research, 2014)

Legend:
[1] = test system: PR8 virus entry; assay: Confocal microscopy of viral NP; settings: 100 μM, MOI 2.5, 2 h at 37 °C, MDCK cells
[2] = test system: A/Puerto Rico/8/34 (H1N1; PR8); assay: organism not typed; assay type: cell-based, influenza A virus; settings: for EC50: MDCK, 72 h, read-out: EC50 for influenza virus A/Puerto Rico/8/34
[3] = test system: B/Lee/40; assay type: cell-based, influenza B virus
[4] = test system: CoxB; assay: MTT-based antiviral assay, CoxB in HeLa cells; assay type: cell-based, Coxsackie B virus; settings: maximum concentration of 100 μM, data not shown
[5] = in vitro; settings: dog
[6] = test system: PR8 virus; assay type: cell-based, influenza A virus
[7] = test system: HSV; assay: MTT-based antiviral assay, HSV in Vero cells; assay type: cell-based, herpes simplex virus; settings: maximum concentration of 100 μM, data not shown
[8] = test system: A/Hong Kong/8/68 (H3N2); assay: organism not typed; assay type: cell-based, influenza A virus; settings: for EC50: MDCK, 72 h, read-out: EC50 for influenza virus A/Hong Kong/8/68
[9] = test system: HIV; assay: MTT-based antiviral assay, HIV in MT-4 cells; assay type: cell-based, human immunodeficiency virus; settings: maximum concentration of 100 μM, data not shown
[10] = test system: PR8 virus; assay type: cell-based, influenza A virus; remark: listed apart in the source
[11] = test system: FECV; assay: MTT-based antiviral assay, FECV in CrFK cells; assay type: cell-based, feline coronavirus; settings: maximum concentration of 100 μM, data not shown
[12] = test system: pore-forming glycoprotein perforin; settings: previous study, ref Lena et al., 2008; cited from earlier work
[13] = test system: PR8 virus NP and HA protein; assay type: cell-based, influenza A virus; settings: 11, 33 and 100 μM, 24 h at 35 °C
[14] = molecular target: PR8-derived viral RNA polymerase (Influenza A virus, UniProt P03428+P03431+P03433); assay type: cell-based; settings: 11, 33 and 100 μM, Vero cells, FLuc normalized against RLuc, day 1
[15] = test system: PR8 virus; assay type: cell-based, influenza A virus; remark: listed apart in the source
[16] = molecular target: PR8 NA (Influenza A virus, UniProt P03468); assay: biochemical
PR8 NA, sequence (P03468 whole entry, looked up): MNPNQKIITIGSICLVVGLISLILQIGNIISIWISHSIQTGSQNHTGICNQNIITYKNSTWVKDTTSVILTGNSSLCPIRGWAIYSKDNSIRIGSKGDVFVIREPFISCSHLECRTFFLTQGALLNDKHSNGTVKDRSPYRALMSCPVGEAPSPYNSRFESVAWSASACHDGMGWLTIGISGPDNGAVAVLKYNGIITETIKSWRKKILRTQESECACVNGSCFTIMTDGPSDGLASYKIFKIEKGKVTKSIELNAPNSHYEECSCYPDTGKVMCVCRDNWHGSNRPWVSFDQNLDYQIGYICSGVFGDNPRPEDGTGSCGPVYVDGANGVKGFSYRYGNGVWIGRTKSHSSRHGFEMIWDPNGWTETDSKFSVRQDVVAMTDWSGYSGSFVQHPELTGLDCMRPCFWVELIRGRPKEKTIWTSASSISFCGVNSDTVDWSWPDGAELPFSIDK

[17] = test system: wild-type NA derived from influenza H1N1 (A/California/04/2009); assay type: biochemical
[18] = test system: influenza A/H1N1, A/H3N2 and B viruses; assay: CPE reduction assay / screen, stated for the three influenza viruses together; assay type: cell-based; settings: Influenza A virus, H1N1|H3N2, read-out: virus growth inhibition

| Compound | NP signal, distribution and intensity in cells [1] | S.I. (selectivity index, CC50/EC50), A/Puerto Rico/8/34 [2] | EC50 [2] [µM] | S.I. (selectivity index, CC50/EC50), B/Lee/40 [3] | antiviral activity against CoxB [4] | CC50 [5] [µM] | plaque titer (infectious viral titers) [6] | antiviral activity against HSV [7] | S.I. (selectivity index, CC50/EC50), A/Hong Kong/8/68 [8] | EC50 [8] [µM] | antiviral activity against HIV [9] | vRNA levels in culture supernatants [10] | antiviral activity against FECV [11] | inhibitory effect on cell lysis induced by perforin [12] | viral protein level (NP, HA) in cells [13] | viral RNA polymerase function [14] | HA titer [15] | IC50 [16] [µM] | function of wild-type NA [17] | inhibition at 20 µM [18] [%] |
| --- | --- | --- | --- | --- | --- | --- | --- | --- | --- | --- | --- | --- | --- | --- | --- | --- | --- | --- | --- | --- |
| O=C(O[C@@H]1Cc2c(O)cc(O)cc2O[C@@H]1c1cc(O)c(O)c(O)c1)c1cc(O)c(O)c(O)c1 [EGCG, (−)-epigallocatechin-3-gallate, reference compound] | reduced the overall NP signal intensity | – | – | – | – | – | – | – | – | – | – | – | – | – | – | – | – | – | – | – |
| Cc1cc2c(c(=S)[nH]1)C(=O)O/C2=C\c1cc2ccccc2s1 [Compound 15g, (Z)-1-(Benzo[b]thiophen-2-ylmethylene)-6-methyl-4-thioxo-4,5-dihydrofuro[3,4-c]pyridin-3(1H)-one] | – | 16.1 ± 6.0 (>55.9) | 16.1 | 18.4 ± 12.8 (>48.9) | no antiviral activity was detected | > 900 | significantly inhibited | no antiviral activity was detected | 10.5 ± 5.0 (>85.7) | 10.5 | no antiviral activity was detected | significantly inhibited | no antiviral activity was detected | active | Reduction of the influenza viral protein level | – | – | – | – | – |
| NC(=O)c1nc(F)c[nH]c1=O [Compound T-705, 6-flouro-3-hydroxy-2-pyrazinecarboxamide, reference compound] | – | – | 4.3 ± 2.4 | – | – | > 100 | – | – | – | 6.5 ± 1.7 | – | – | – | – | – | suppressed | 8 HAU/50 μl | – | – | – |
| Cc1cc2c(c(=S)[nH]1)C(=O)O/C2=C\c1cccs1 [Compound 15q, (Z)-6-Methyl-1-(thiophen-2-ylmethylene)-4-thioxo-4,5-dihydrofuro[3,4-c]pyridin-3(1H)-one] | not affected | 7.5 ± 3.2 (>120.0) | 7.5 | 7.0 ± 3.8 (>128.6) | no antiviral activity was detected | > 900 | significantly inhibited | no antiviral activity was detected | 6.8 ± 1.3 (>132.4) | 6.8 | no antiviral activity was detected | significantly inhibited | no antiviral activity was detected | active | Reduction of the influenza viral protein level | not changed | – | 1.5 ± 0.4 | – | – |
| Cc1cc2c(c(=S)[nH]1)C(=O)O/C2=C\c1c[nH]c2ccc(F)cc12 [Compound 15a, (Z)-1-((5-Fluoro-1H-indol-3-yl)methylene)-6-methyl-4-thioxo-4,5-dihydrofuro[3,4-c]pyridin-3(1H)-one] | – | – | – | – | no antiviral activity was detected | > 900 | significantly inhibited | no antiviral activity was detected | – | – | no antiviral activity was detected | significantly inhibited | no antiviral activity was detected | – | Reduction of the influenza viral protein level | not changed | – | 0.6 ± 0.1 | suppressed | > 50 |
| CCC(CC)O[C@@H]1C=C(C(=O)O)C[C@H](N)[C@H]1NC(C)=O [Oseltamivir carboxylate, oseltamivir carboxylate, reference compound] | – | – | 0.03 ± 0.01 | – | – | > 100 | – | – | – | < 0.01 | – | – | – | – | – | – | no detection | – | – | – |
